{"source": "patent US5952326A", "about": "“Tetralin and chroman derivatives useful in the treatment of asthma, arthritis and related diseases” (Pfizer Inc., priority 1997, dated 1999)", "test_system": "PAF (platelet activating factor) lethality", "assay": "PAF lethality assay procedure", "assay_type": "in vivo, mice (CD1 males)", "details": "Mus musculus, po, positive control, mice treated orally 45 minutes before i.v. PAF injection, approximate", "method": "To evaluate the compounds of the formula (I) in vivo, they are tested by the so-called PAF lethality assay procedure:\nMice: CD1 males, all approximately the same weight (approximately 26 grams), 12 per group.\nVehicle for oral drug dosing: EES (5% ethanol, 5% emulphor, 90% saline). Stored at room temperature.\nDrugs: For routine screening at 50 mg/kg, 20 mg drug is dissolved in 4 ml EES, using sonication in a sonicator bath or grinding in a Ten Broeck grinder to dissolve drug if necessary. If solubility is still a problem, the drug is used as a suspension.\nVehicle for i.v. Injection: Saline with 2.5 mg/ml Bovine Serum Albumin (BSA, Sigma #A4378) and 0.05 mg/ml Propranolol (Sigma #P0884). Prepared fresh daily and kept at room temperature.\nPlatelet Activating Factor (PAF): A 10 microm stock solution is prepared by dissolving 1 mg PAF (Calbiochem #429460) in 0.18 ml ethanol. This is stored at -20° C. and is diluted in vehicle (see above) the day of use. The concentration of PAF used is calibrated so that when injected at 0.1 ml/10 grams body weight, it will kill approximately 80% of untreated controls. This is usually about […] (a 1 to 2034 dilution from stock). […]\n45 minutes before PAF injection, mice are treated orally with drug using 0.1 ml/10 grams body weight. […] Results are expressed as percent mortality as compared to controls. […]", "data": [{"smiles": "O=C1CCN(c2ccccc2)N1", "note": "[Phenidone]", "values": [{"measurement": "ED50", "result": "~25", "unit": "mg/kg"}]}]}
